Experimental data published in the NIST ThermoML archive (doi:10.1016/j.jct.2017.12.017).
Where “and” joins values, the source holds several entries; their conditions need not be identical. Identical values can stand only once.

Assay: mn = molality of the nth substance listed, in mol/kg
Conditions: 100 kPa, Liquid; for speed of sound: Frequency=3 MHz, Single path-length method; for mass density: Vibrating tube method

Nc1ccc(S(=O)(=O)Nc2nccs2)cc1 [N-(2-thiazolyl)sulfanilamide] + O
Conditions | mass density, 288.15 K | mass density, 293.15 K | mass density, 298.15 K | mass density, 303.15 K | mass density, 308.15 K | speed of sound, 288.15 K [m/s] | speed of sound, 293.15 K [m/s] | speed of sound, 298.15 K [m/s] | speed of sound, 303.15 K [m/s] | speed of sound, 308.15 K [m/s]
m1 = 0.001 | 999.21 kg/m3 | 998.28 kg/m3 | 997.13 kg/m3 | 995.71 kg/m3 | 994.08 kg/m3 | 1466.6 | 1482.9 | 1497.1 | 1509.6 | 1520.2
m1 = 0.005 | 999.71 kg/m3 | 998.79 kg/m3 | 997.61 kg/m3 | 996.18 kg/m3 | 994.54 kg/m3 | 1467.2 | 1483.5 | 1497.7 | 1510 | 1520.6
m1 = 0.01 | 1000.27 kg/m3 and 1000.33 kg/m3 | 999.36 kg/m3 and 999.41 kg/m3 | 998.19 kg/m3 and 998.23 kg/m3 | 996.81 kg/m3 and 996.77 kg/m3 | 995.18 kg/m3 and 995.14 kg/m3 | 1468.5 | 1484.5 | 1498.7 | 1510.7 | 1521.7
